Legend:
Type in all cases: cell-based
TYK2 [1] = target: T1, TYK2 (Homo sapiens, UniProt P29597); test: TYK2 degradation MSD assay in OCI-LY10 cells; set-up: endogenous in cells; host or cells: EBV-B cells; details: 4 to 24 hours incubation, read-out: TYK2 MSD DC50 rating in OCI-LY10
Method in brief: (§1)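 Cells (0.4 million per well) were treated with a 9-point, 1:3 compound series from a top concentration of 1 to 10 μM for 4 to 24 hours at 37° C, then lysed in RIPA with protease/phosphatase inhibitors. Remaining TYK2 was quantified by sandwich MSD immunoassay; DC50 came from four-parameter nonlinear fits.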

TYK2 [2] = target: T1, TYK2; test: TYK2 degradation MSD assay in EBV-B cells; set-up: endogenous in cells; host or cells: EBV-B cells; details: 4 to 24 hours incubation, read-out: TYK2 MSD DC50 rating in EBV-B
Method in brief: as §1

TYK2 [3] = target: T1, TYK2; test: TYK2 degradation MSD assay in human PBMC cells; set-up: endogenous in cells; host or cells: human PBMC; details: 4 to 24 hours incubation, read-out: TYK2 MSD DC50 rating in human PBMC
Method in brief: as §1

T1 sequence (P29597 whole entry): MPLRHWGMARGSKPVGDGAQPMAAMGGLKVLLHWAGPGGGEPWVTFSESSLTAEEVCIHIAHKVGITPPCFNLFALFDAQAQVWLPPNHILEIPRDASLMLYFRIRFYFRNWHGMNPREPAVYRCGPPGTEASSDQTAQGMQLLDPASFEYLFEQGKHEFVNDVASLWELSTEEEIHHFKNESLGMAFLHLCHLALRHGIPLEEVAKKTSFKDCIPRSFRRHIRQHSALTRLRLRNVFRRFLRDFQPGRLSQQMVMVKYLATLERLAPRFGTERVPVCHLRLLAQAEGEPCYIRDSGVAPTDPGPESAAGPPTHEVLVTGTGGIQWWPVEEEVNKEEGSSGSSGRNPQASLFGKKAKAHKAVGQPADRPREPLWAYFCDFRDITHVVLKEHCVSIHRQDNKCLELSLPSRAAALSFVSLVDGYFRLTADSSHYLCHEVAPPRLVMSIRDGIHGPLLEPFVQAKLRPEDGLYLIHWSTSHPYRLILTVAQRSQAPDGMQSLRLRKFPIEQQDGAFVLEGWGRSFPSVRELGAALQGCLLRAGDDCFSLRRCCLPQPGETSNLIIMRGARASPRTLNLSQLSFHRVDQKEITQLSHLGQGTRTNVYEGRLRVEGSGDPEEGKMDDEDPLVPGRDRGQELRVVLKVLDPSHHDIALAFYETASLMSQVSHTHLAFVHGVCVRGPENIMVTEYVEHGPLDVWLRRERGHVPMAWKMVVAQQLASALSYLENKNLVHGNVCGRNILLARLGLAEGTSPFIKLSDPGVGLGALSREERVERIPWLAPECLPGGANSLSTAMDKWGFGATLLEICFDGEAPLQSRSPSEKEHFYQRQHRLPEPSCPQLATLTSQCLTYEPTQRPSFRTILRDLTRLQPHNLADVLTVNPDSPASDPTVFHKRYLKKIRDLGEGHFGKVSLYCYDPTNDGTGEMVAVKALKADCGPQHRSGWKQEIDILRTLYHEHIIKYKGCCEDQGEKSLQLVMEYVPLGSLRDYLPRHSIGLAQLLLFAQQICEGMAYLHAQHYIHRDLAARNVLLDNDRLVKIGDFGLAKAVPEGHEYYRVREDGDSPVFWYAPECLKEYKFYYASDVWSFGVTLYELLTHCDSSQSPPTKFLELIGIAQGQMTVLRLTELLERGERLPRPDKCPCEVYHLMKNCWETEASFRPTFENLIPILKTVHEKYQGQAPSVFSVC

DC50 (TYK2 [1]) | DC50 (TYK2 [2]) | DC50 (TYK2 [3]) | SMILES
> 100 nM | < 1 nM | > 100 nM | CNC(=O)c1cnc(Nc2ccc(CN3CCC(N(C)c4ccc5c(c4)n(C)c(=O)n5C4CCC(=O)NC4=O)C3)cn2)cc1Nc1cccc(-c2ncc(F)cn2)c1OC (stereo not drawn) [Example K164]
> 100 nM | > 100 nM | > 100 nM | CNc1cc(Nc2cccc(C3CCN(C(=O)Cc4cccc5c4n(C)c(=O)n5C4CCC(=O)NC4=O)CC3)c2)nn2c(C(=O)N[C@@H]3C[C@@H]3F)cnc12 (stereo partly drawn) [Example K647]
> 100 nM | > 100 nM | < 1 nM | CNc1cc(Nc2cccn(-c3ccc(C(=O)N(C)Cc4ccc(-c5ccc6c(c5)n(C)c(=O)n6C5CCC(=O)NC5=O)cn4)cn3)c2=O)nn2c(C(=O)N[C@@H]3C[C@@H]3F)cnc12 (stereo partly drawn) [Example K387]
> 100 nM | < 1 nM | > 100 nM | CNc1cc(Nc2cccn(-c3ccc(C(=O)N4CC5(C4)CN(c4ccc(-c6ccc7c(c6)n(C)c(=O)n7C6CCC(=O)NC6=O)cc4)C5)cn3)c2=O)nn2c(C(=O)N[C@@H]3C[C@@H]3F)cnc12 (stereo partly drawn) [Example K372]
> 100 nM | 1 to 10 nM | 1 to 10 nM | CNc1cc(Nc2cccn(-c3cc(C(=O)NCCCCCCCCCCc4ccc5c(c4)n(C)c(=O)n5C4CCC(=O)NC4=O)ccn3)c2=O)nn2c(C(=O)N[C@@H]3C[C@@H]3F)cnc12 (stereo partly drawn) [Example K233]
> 100 nM | < 1 nM | < 1 nM | CNC(=O)c1cnc(Nc2ccc(CN(C)C3CCN(Cc4cccc5c4n(C)c(=O)n5C4CCC(=O)NC4=O)CC3)cn2)cc1Nc1cccc(-c2ncc(F)cn2)c1OC (stereo not drawn) [Example K137]
1 to 10 nM | > 100 nM | > 100 nM | CNc1cc(N2CCc3c(CN4CCN(c5ccc(-c6ccc7c(c6)n(C)c(=O)n7C6CCC(=O)NC6=O)cc5)CC4)cccc32)nn2c(C(=O)N[C@@H]3C[C@@H]3F)cnc12 (mixture of isomers) [Example K575]
> 100 nM | > 100 nM | > 100 nM | Cn1c(=O)n(C2CCC(=O)NC2=O)c2ccc(CCCCCCCCCCNc3cc(Nc4cccn(-c5ccccn5)c4=O)nn4c(C(=O)N[C@@H]5C[C@@H]5F)cnc34)cc21 (stereo partly drawn) [Example K210]
< 1 nM | > 100 nM | > 100 nM | CNc1cc(Nc2cccc(N3CCC(CN4CC5(CCN(c6cccc7c6n(C)c(=O)n7C6CCC(=O)NC6=O)CC5)C4)CC3)c2)nn2c(C(=O)N[C@@H]3C[C@@H]3F)cnc12 (stereo partly drawn) [Example K520]
> 100 nM | > 100 nM | > 100 nM | Cn1c(=O)n(C2CCC(=O)NC2=O)c2ccc(CCOCCOCCNc3cc(Nc4cccn(-c5ccccn5)c4=O)nn4c(C(=O)N[C@@H]5C[C@@H]5F)cnc34)cc21 (stereo partly drawn) [Example K201]
10 to 100 nM | > 100 nM | 10 to 100 nM | CNC(=O)c1cnc(Nc2ccc(C(=O)NCCCCc3cccc4c3n(C)c(=O)n4C3CCC(=O)NC3=O)cn2)cc1Nc1cccn(C)c1=O (stereo not drawn) [Example K189]
< 1 nM | > 100 nM | > 100 nM | CNc1cc(Nc2cccc(N3CCC(CN4CC5(C4)CN(c4ccc(-c6ccc7c(c6)n(C)c(=O)n7C6CCC(=O)NC6=O)cc4)C5)CC3)c2OC)nn2c(C(=O)N[C@@H]3C[C@@H]3F)cnc12 (stereo partly drawn) [Example K623]
1 to 10 nM | > 100 nM | > 100 nM | CNc1cc(N2CCc3c(N4CCC(CC5CC6(CCN(C(=O)c7ccc(Cl)c(N8CCC(=O)NC8=O)c7)CC6)C5)CC4)cccc32)nn2c(C(=O)N[C@@H]3C[C@@H]3F)cnc12 [Example K568]
> 100 nM | > 100 nM | < 1 nM | CNc1cc(Nc2cccn(-c3ccc(C(=O)N4CCC5(CC4)CCN(c4ccc6c(c4)n(C)c(=O)n6C4CCC(=O)NC4=O)C5)cn3)c2=O)nn2c(C(=O)N[C@@H]3C[C@@H]3F)cnc12 (stereo partly drawn) [Example K392]
> 100 nM | > 100 nM | > 100 nM | Cn1c(=O)n(C2CCC(=O)NC2=O)c2ccc(-c3ccc(N4CCN(Cc5ccc(-c6cccc(Nc7cc(C8CC8)c8ncc(C(=O)N[C@@H]9C[C@@H]9F)n8n7)c6)nc5)CC4)cc3)cc21 (stereo partly drawn) [Example K484]
> 100 nM | > 100 nM | > 100 nM | CNc1cc(Nc2cccn(-c3cc(C(=O)NCCOCCOCCOCCOCCOCCOCCc4ccc5c(c4)n(C)c(=O)n5C4CCC(=O)NC4=O)ccn3)c2=O)nn2c(C(=O)N[C@@H]3C[C@@H]3F)cnc12 (stereo partly drawn) [Example K245]
> 100 nM | > 100 nM | > 100 nM | CNc1cc(-c2cn(C)c3c(-c4ccc(CN5CCN(c6ccc(-c7ccc8c(c7)n(C)c(=O)n8C7CCC(=O)NC7=O)cc6)CC5)cc4)cccc23)nn2c(C(=O)N[C@@H]3C[C@@H]3F)cnc12 (stereo partly drawn) [Example K532]
> 100 nM | > 100 nM | > 100 nM | CNc1cc(Nc2cccn(-c3cc(C(=O)NCCOCCOCCc4ccc5c(c4)n(C)c(=O)n5C4CCC(=O)NC4=O)ccn3)c2=O)nn2c(C(=O)N[C@@H]3C[C@@H]3F)cnc12 (stereo partly drawn) [Example K237]

DC50 (TYK2 [1]) | DC50 (TYK2 [2]) | DC50 (TYK2 [3]) | SMILES
> 100 nM | < 1 nM | > 100 nM | CNC(=O)c1cnc(Nc2ccc(CN3CCC(c4ccc5c(c4)n(C)c(=O)n5C4CCC(=O)NC4=O)C3)cn2)cc1Nc1cccc(-c2ncc(F)cn2)c1OC (stereo not drawn) [Example K166]
< 1 nM | > 100 nM | < 1 nM | CNC(=O)c1cnc(Nc2ccc(CN(C)C3CN(c4cccc5c4n(C)c(=O)n5C4CCC(=O)NC4=O)C3)cn2)cc1Nc1cccc(-c2ncc(F)cn2)c1OC (stereo not drawn) [Example K154]
> 100 nM | > 100 nM | > 100 nM | Cn1c(=O)n(C2CCC(=O)NC2=O)c2ccc(CCCCNC(=O)c3ccc(-c4ccc5ncc(C(=O)N[C@@H]6C[C@@H]6F)n5n4)cc3)cc21 (stereo partly drawn) [Example K324]
< 1 nM | > 100 nM | > 100 nM | CNc1cc(N2CCc3c(-c4ccc(CN5CCC6(CC5)CCN(C(=O)c5cccc(N7CCC(=O)NC7=O)c5)CC6)cn4)cccc32)nn2c(C(=O)N[C@@H]3C[C@@H]3F)cnc12 [Example K625]
< 1 nM | > 100 nM | > 100 nM | CNc1cc(Nc2cccn(-c3ccc(C(=O)N4CCC(OCCCc5ccc6c(c5)n(C)c(=O)n6C5CCC(=O)NC5=O)CC4)cn3)c2=O)nn2c(C(=O)N[C@@H]3C[C@@H]3F)cnc12 (stereo partly drawn) [Example K407]
> 100 nM | > 100 nM | > 100 nM | CNc1cc(-c2ccc(N3CCC(CN4CCN(c5ccc(-c6ccc7c(c6)n(C)c(=O)n7C6CCC(=O)NC6=O)cc5)CC4)CC3)cc2)nn2c(C(=O)N[C@@H]3C[C@@H]3F)cnc12 (mixture of isomers) [Example K545]
< 1 nM | > 100 nM | > 100 nM | CNc1cc(N2CCc3c(C4CCN(CC5CCN(c6ccc(-c7ccc8c(c7)n(C)c(=O)n8C7CCC(=O)NC7=O)cc6)CC5)CC4)cccc32)nn2c(C(=O)N[C@@H]3C[C@@H]3F)cnc12 (mixture of isomers) [Example K536]
> 100 nM | > 100 nM | > 100 nM | CNc1cc(Nc2cccn(-c3ccc(C(=O)NCCCCCCCCc4cncc(N5CCC[C@H](C(=O)Nc6ccc(=O)n(CC(=O)OC)c6)C5)c4)cn3)c2=O)nn2c(C(=O)N[C@@H]3C[C@@H]3F)cnc12 [Example K599]
< 1 nM | > 100 nM | > 100 nM | CNc1cc(Nc2cccn(-c3ccc(C(=O)N4CC5(CN(CCC#Cc6ccc7c(c6)n(C)c(=O)n7C6CCC(=O)NC6=O)CCO5)C4)cn3)c2=O)nn2c(C(=O)N[C@@H]3C[C@@H]3F)cnc12 (stereo partly drawn) [Example K420]
> 100 nM | > 100 nM | 1 to 10 nM | CNc1cc(Nc2cccn(C3CCN(C(=O)NCCCCc4ccc5c(c4)n(C)c(=O)n5C4CCC(=O)NC4=O)CC3)c2=O)nn2c(C(=O)N[C@@H]3C[C@@H]3F)cnc12 (stereo partly drawn) [Example K277]
> 100 nM | 1 to 10 nM | > 100 nM | CNC(=O)c1cnc(Nc2ccc(CN(C)C3CCCN(c4cccc5c4n(C)c(=O)n5C4CCC(=O)NC4=O)C3)cn2)cc1Nc1cccc(-c2ncc(F)cn2)c1OC (stereo not drawn) [Example K162]
< 1 nM | > 100 nM | > 100 nM | CNc1cc(Nc2cccn(-c3ccc(C(=O)N4CC(CN5CCC(c6cccc7c6n(C)c(=O)n7C6CCC(=O)NC6=O)CC5)C4)cn3)c2=O)nn2c(C(=O)N[C@@H]3C[C@@H]3F)cnc12 (stereo partly drawn) [Example K450]
1 to 10 nM | > 100 nM | > 100 nM | CNc1cc(Nc2cccc(CN3CCC(c4ncc(-c5ccc6c(c5)n(C)c(=O)n6C5CCC(=O)NC5=O)cn4)CC3)c2)nn2c(C(=O)NC3CC3)cnc12 (stereo not drawn) [Example K585]
> 100 nM | < 1 nM | < 1 nM | CNc1cc(Nc2cccn(-c3ccc(C(=O)N4CCC5(CC4)CC(Cc4ccc6c(c4)n(C)c(=O)n6C4CCC(=O)NC4=O)C5)cn3)c2=O)nn2c(C(=O)N[C@@H]3C[C@@H]3F)cnc12 (stereo partly drawn) [Example K391]
< 1 nM | > 100 nM | > 100 nM | CNc1cc(Nc2cccc(CN3CCC(OC4CC(c5ccc6c(c5)n(C)c(=O)n6C5CCC(=O)NC5=O)C4)CC3)c2)nn2c(C(=O)NC3CC3)cnc12 (stereo not drawn) [Example K596]
> 100 nM | < 1 nM | < 1 nM | CNc1cc(Nc2cccn(-c3ccc(C(=O)N4CCC(c5ncc(-c6ccc7c(c6)n(C)c(=O)n7C6CCC(=O)NC6=O)cn5)CC4)cn3)c2=O)nn2c(C(=O)N[C@@H]3C[C@@H]3F)cnc12 (stereo partly drawn) [Example K385]
> 100 nM | > 100 nM | > 100 nM | CNc1cc(-c2ccc(C(=O)NCCCCCCCCc3cccc4c3n(C)c(=O)n4C3CCC(=O)NC3=O)cc2)nn2c(C(=O)N[C@@H]3C[C@@H]3F)cnc12 (stereo partly drawn) [Example K303]

Reference: patent US20250051338A1, “TYK2 DEGRADERS AND USES THEREOF” (Kymera Therapeutics, Inc., priority 2021, published 2025)
